Where a name gives a salt, the structure may show the parent alone. Read-outs that look alike come from different tables or passages of the source.
Tests used:
LoVo cells = assay: MTT based cell viability assay on LoVo cells; settings: Homo sapiens, LoVo, 72 h, 3 d, read-out: IC50, growth inhibition of LoVo cells
Method: Determination of the cell growth inhibiting activity of 6-(2-chlorophenyl)-2-((4-(4-methylpiperazin-1-yl)phenyl)amino)-8,9-dihydroimidazo[1,2-a]pyrimido[5,4-e]pyrimidin-5(6H)-one and analogs on LoVo cells using a MTT based cell viability assay
(§1) The thawed LoVo cells were cultured and passaged to the third generation, and the growth state was good and the confluence was about 90%, which began to be used in the experiment. The LoVo cells were digested with trypsin, centrifuged at 800 rpm for 5 min, the supernatant was discarded, resuspended with fresh culture medium, and counted. 6000 Cells are seeded to each well of a 96-well plate. The cells are incubated at 37° C. in a 5% CO2 cell culture incubator overnight. The tested sample (including the tested compound and the reference compound AZD1775) was diluted continuously to 8 concentrations (the last concentration was negative control of DMSO) with a 1:3 and 1:10 dilution in DMSO respectively: 10 μM, 3.3 μM, 1 μM, 0.33 μM, 0.1 μM, 0.033 μM, 0.01 μM, 0 μM (the final concentration of DMSO was 1%). 5 μL of each concentration was added to 120 μL of culture medium (25 times diluted), and the mixture was shaken well. The overnight cells were taken and the culture medium was removed, 195 μL of fresh culture medium was added to each well, and 5 μL of diluted culture medium containing the corresponding concentration of the tested sample was added respectively, and the culture plate was then placed in the 5% CO2 cell culture incubator at 37° C. for 3 d. After removing the original solution and adding 100 μL of fresh serum-free DMEM culture medium containing MTT (0.5 mg/mL) per well, the culture was continued. The original solution was removed after 4 hrs and 100 μl DMSO was added to each well. The 96-well cell culture plates were shaken away from light for 10 min and readed in a multifunctional reader at 552/630/690 nm to give absorption values (OD values). The data were analyzed using a commercial graphic software (Graph Pad Prism 5.0) and the inhibitory activity of the compound on cell proliferation was plotted in terms of cell survival and compound concentration. The IC50 values were fitted by the S-shaped dose-response curve equation as follows: Y=100/(1+10^(Log C-Log IC50)), where C was the concentration of testing compounds.

Wee1 (h) = Wee1 (h) (Homo sapiens, UniProt P30291); assay: Wee1 kinase (h) detection method, [γ-33P]-ATP filter assay; assay type: biochemical
Sequence of Wee1 (h) (P30291 whole entry): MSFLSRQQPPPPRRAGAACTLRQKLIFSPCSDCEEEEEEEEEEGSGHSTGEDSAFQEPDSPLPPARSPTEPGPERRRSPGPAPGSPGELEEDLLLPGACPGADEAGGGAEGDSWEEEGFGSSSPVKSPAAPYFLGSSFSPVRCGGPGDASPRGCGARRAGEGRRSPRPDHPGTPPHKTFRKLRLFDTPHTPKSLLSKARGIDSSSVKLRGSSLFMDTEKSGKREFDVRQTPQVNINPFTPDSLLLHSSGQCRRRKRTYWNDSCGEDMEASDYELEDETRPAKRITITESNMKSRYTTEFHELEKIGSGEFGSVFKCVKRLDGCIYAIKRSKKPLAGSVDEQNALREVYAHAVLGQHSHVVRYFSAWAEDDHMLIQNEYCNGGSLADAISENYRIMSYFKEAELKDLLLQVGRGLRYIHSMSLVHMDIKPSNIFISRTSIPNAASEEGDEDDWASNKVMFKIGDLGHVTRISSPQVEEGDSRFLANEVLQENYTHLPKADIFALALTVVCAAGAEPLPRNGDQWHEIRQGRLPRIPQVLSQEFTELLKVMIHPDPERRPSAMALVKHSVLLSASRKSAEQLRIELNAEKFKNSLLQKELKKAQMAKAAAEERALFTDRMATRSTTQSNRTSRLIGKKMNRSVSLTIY
Method: Determination of the inhibitory effect of 6-(2-chlorophenyl)-2-((4-(4-methylpiperazin-1-yl)phenyl)amino)-8,9-dihydroimidazo[1,2-a]pyrimido[5,4-e]pyrimidin-5(6H)-one and Analogs on the Enzyme Activity of Wee1 Kinase by Using the Wee1 Kinase (h) Detection Method
Then the stock solution of all compounds under test with 50× concentration in 100% DMSO was added to make the final concentration of 10/1/0.1/0.01 μM, and then mixed the mixture well. The reaction is initiated by the addition of the Mg/ATP mix. After incubation for 40 minutes at room temperature, the reaction is stopped by the addition of phosphoric acid to a concentration of 0.5%. […] Each compound sample is duplicated in duplicate. The negative control was lack of all the components of Wee1 enzyme, and the positive was addition of 30% phosphoric acid to terminate the reaction. The Wee1 inhibitor AZD1775 was detected at 10 μM at the same experiment condition.

NCI-H1299 cells = assay: MTT based cell viability assay on NCI-H1299 cells; settings: Homo sapiens, read-out: IC50, growth inhibition of NCI-H1299 cells
Method: Determination of the cell growth inhibiting activity of 6-(2-chlorophenyl)-2-((4-(4-methylpiperazin-1-yl)phenyl)amino)-8,9-dihydroimidazo[1,2-a]pyrimido[5,4-e]pyrimidin-5(6H)-one and analogs on NCI-H1299 cells using a MTT based cell viability assay
as §1, with “NCI-H1299” for “LoVo”, “group,” for “medium,”, “1000” for “6000”, “1‰).” for “1%).”, “C−Log” for “C-Log”

| Compound | IC50 (LoVo cells) [nM] | Inh. (%) of Wee1 kinase enzyme activity (Wee1 (h); C 10 μm compound) [%] | IC50 (NCI-H1299 cells; NCI-H1299 cells) [nM] | Inh. (%) of Wee1 kinase enzyme activity (Wee1 (h); C 0.01 μm compound) [%] | Inh. (%) of Wee1 kinase enzyme activity (Wee1 (h); C 0.1 μm compound) [%] | Inh. (%) of Wee1 kinase enzyme activity (Wee1 (h); C 1 μm compound) [%] | inhibition at 0.01 µM (Wee1 (h); at 0.01 μM, read-out: inhibitory rate on Wee1 enzyme activity) [%] | IC50 (NCI-H1299 cells; NCI-H1299, NCI-H1299 cells) [nM] |
| --- | --- | --- | --- | --- | --- | --- | --- | --- |
| CN1CCN(c2ccc(Nc3cc4c(cn3)C(=O)N(c3ccccc3Cl)C3=NCCN34)cc2)CC1 [Example 3, 4-(2-Chlorophenyl)-8-((4-(4-methylpiperazin-1-yl)phenyl)amino)-2,4-dihydroimidazo[1,2-a]pyrido[3,4-e]pyrimidin-5(1H)-one] | > 100000 | 56 | > 10000 |  |  |  |  |  |
| CN1CCN(c2ccc(Nc3ncc4c(n3)N3CCN=C3N(c3c(Cl)cccc3Cl)C4=O)cc2)CC1 [Example 4, 6-(2,6-Dichlorophenyl)-2-((4-(4-methylpiperazin-1-yl)phenyl)amino)-8,9-dihydroimidazo[1,2-a]pyrimido[5,4-e]pyrimidin-5(6H)-one] | 169 |  |  | 55 | 93 | 97 | 51 | 204 |
| Cc1cccc(Cl)c1N1C(=O)c2cnc(Nc3ccc(N4CCN(C)CC4)cc3)nc2N2CCN=C21 [Example 5, 6-(2-Chloro-6-methylphenyl)-2-((4-(4-methylpiperazin-1-yl)phenyl)amino)-8,9-dihydroimidazo[1,2-a]pyrimido[5,4-e]pyrimidin-5(6H)-one] | 431 |  | 941 |  |  | 88 |  |  |
| CC(C)N1CCN(c2ccc(Nc3ncc4c(n3)N3CCN=C3N(c3c(F)cccc3Cl)C4=O)cc2)CC1 [Example 6, 6-(2-Chloro-6-fluorophenyl)-2-((4-(4-isopropylpiperazin-1-yl)phenyl)amino)-8,9-dihydroimidazo[1,2-a]pyrimido[5,4-e]pyrimidin-5(6H)-one] | 339 |  | 461 | 33 | 89 | 98 |  |  |
| COc1cc(Nc2ncc3c(n2)N2CCN=C2N(c2c(Cl)cccc2Cl)C3=O)cc(C)c1N1CCN(C)CC1 [Example 159, 6-(2,6-Dichlorophenyl)-2-((3-methoxy-5-methyl-4-(4-methylpiperazin-1-yl)phenyl)amino)-8,9-dihydroimidazo[1,2-a]pyrimido[5,4-e]pyrimidin-5(6H)-one] | 52.2 |  | 56.8 |  |  |  |  |  |
| CNCc1cc(Nc2ncc3c(n2)N2CCN=C2N(c2c(Cl)cccc2Cl)C3=O)ccc1N1CCOCC1 [Example 184, 6-(2,6-Dichlorophenyl)-2-((3-((methylamino)methyl)-4-morpholinophenyl)amino)-8,9-dihydroimidazo[1,2-a]pyrimido[5,4-e]pyrimidin-5(6H)-one] | 1490 |  | 879 |  |  |  |  |  |
| CN1CCN(c2ccc(Nc3ncc4c(n3)N3CCN=C3N(c3c(Cl)cccc3Cl)C4=O)cc2Cl)CC1 [Example 186, 6-(2,6-Dichlorophenyl)-2-((3-chloro-4-(4-methylpiperazin-1-yl)phenyl)amino)-8,9-dihydroimidazo[1,2-a]pyrimido[5,4-e]pyrimidin-5(6H)-one dihydrochloride] | 42.4 |  | 154 |  |  |  |  |  |

The remaining lines, values ahead:

| IC50 (LoVo cells) [nM] | Inh. (%) of Wee1 kinase enzyme activity (Wee1 (h); C 10 μm compound) [%] | IC50 (NCI-H1299 cells; NCI-H1299 cells) [nM] | Inh. (%) of Wee1 kinase enzyme activity (Wee1 (h); C 0.01 μm compound) [%] | Inh. (%) of Wee1 kinase enzyme activity (Wee1 (h); C 0.1 μm compound) [%] | Inh. (%) of Wee1 kinase enzyme activity (Wee1 (h); C 1 μm compound) [%] | inhibition at 0.01 µM (Wee1 (h); at 0.01 μM, read-out: inhibitory rate on Wee1 enzyme activity) [%] | IC50 (NCI-H1299 cells; NCI-H1299, NCI-H1299 cells) [nM] | Compound |
| --- | --- | --- | --- | --- | --- | --- | --- | --- |
| 37.3 |  | 42.9 |  |  |  |  |  | Cc1cc(Nc2ncc3c(n2)N2CCN=C2N(c2c(Cl)cccc2Cl)C3=O)ccc1N1CCC(N(C)C)CC1 [Example 141, 6-(2,6-Dichlorophenyl)-2-((4-(4-(dimethylamino)piperidin-1-yl)-3-methylphenyl)amino)-8,9-dihydroimidazo[1,2-a]pyrimido[5,4-e]pyrimidin-5(6H)-one] |
| 76.9 |  | 89.9 |  |  |  |  |  | Cc1cc(Nc2ncc3c(n2)N2CCN=C2N(c2c(C)cccc2Cl)C3=O)cc(F)c1N1CCC(N(C)C)CC1 [Example 170, 6-(2-Chloro-6-methylphenyl)-2-((4-(4-(dimethylamino)piperidin-1-yl)-3-fluoro-5-methylphenyl)amino)-8,9-dihydroimidazo[1,2-a]pyrimido[5,4-e]pyrimidin-5(6H)-one] |
| 59.5 |  | 83.1 |  |  |  |  |  | Cc1cc(Nc2ncc3c(n2)N2CCN=C2N(c2c(Cl)cccc2Cl)C3=O)ccc1N1CCNCC1 [Example 177, 6-(2,6-Dichlorophenyl)-2-((3-methyl-4-(piperazin-1-yl)phenyl)amino)-8,9-dihydroimidazo[1,2-a]pyrimido[5,4-e]pyrimidin-5(6H)-one] |

Source: patent US11345711B2, “8,9-dihydroimidazo[1,2-a]pyrimido[5,4-e]pyrimidin-5(6H)-ones” (IMPACT THERAPEUTICS (SHANGHAI), INC, priority 2016, dated 2022)
